Values belong to the molecule of their own block, whether it stands above or below them.
What was measured:
ThNAD-MEβ2 = test: NADH formation at […] nm; format: biochemical, Tarenaya hassleriana; conditions: read-out: Km malate; 4 mM NAD, 10 mM MnCl2, MES pH 6.2-6.4
ThNAD-MEβ1 = test: NADH formation at […] nm; format: biochemical, Tarenaya hassleriana; conditions: read-out: Km malate; 4 mM NAD, 10 mM MnCl2, MES pH 6.2-6.4
ThNAD-MEα/β2 = test: NADH formation at […] nm; format: biochemical, Tarenaya hassleriana; conditions: read-out: Km malate; 4 mM NAD, 10 mM MnCl2, MES pH 6.2-6.4
ThNAD-MEα/β1 = test: NADH formation at […] nm; format: biochemical, Tarenaya hassleriana; conditions: read-out: Km malate; 4 mM NAD, 10 mM MnCl2, MES pH 6.2-6.4
GgNAD-MEα = test: NADH formation at […] nm; format: biochemical, Gynandropsis gynandra; conditions: read-out: Km malate; 4 mM NAD, 10 mM MnCl2, MES pH 6.2-6.4
GgNAD-MEα/β2 = test: NADH formation at […] nm; format: biochemical, Gynandropsis gynandra; conditions: read-out: Km malate; no aspartate; 4 mM NAD, 10 mM MnCl2, MES pH 6.2-6.4
ThNAD-MEα = test: NADH formation at […] nm; format: biochemical, Tarenaya hassleriana; conditions: read-out: Km malate; 4 mM NAD, 10 mM MnCl2, MES pH 6.2-6.4
GgNAD-MEβ2 = test: NADH formation at […] nm; format: biochemical, Gynandropsis gynandra; conditions: read-out: Km malate; no aspartate; 4 mM NAD, 10 mM MnCl2, MES pH 6.2-6.4
purified protein = substrate: O=C(O)C[C@H](O)C(=O)O; test: purified protein; conditions: no aspartate; 4 mM NAD, 10 mM MnCl2, MES pH 6.2-6.4; pH 6.0

Km (ThNAD-MEβ2): 6.8 ± 1.7 mM | Km (ThNAD-MEβ1): 9.2 ± 2.3 mM | Km (ThNAD-MEα/β2): 3.4 ± 1 mM | Km (ThNAD-MEα/β1): 6.6 ± 1.6 mM | Km (GgNAD-MEα): 3.1 ± 0.4 mM | Km (GgNAD-MEα/β2): 3.5 ± 0.5 mM | Km (ThNAD-MEα): 5.4 ± 1.3 mM | Km (GgNAD-MEβ2): 2.6 ± 1 mM
Molecule: O=C(O)C[C@H](O)C(=O)O [malate]

B1: AtNAD-MEα/β (Arabidopsis thaliana) (protein)
chain 1: PTIVHKQGLDILHDPWFNKGTAFTMTERNRLDLRGLLPPNVMDSEQQIFRFMTDLKRLEEQARDGPSDPNALAKWRILNRLHDRNETMYYKVLINNIEEYAPIVYTPTVGLVCQNYSGLFRRPRGMYFSAEDRGEMMSMVYNWPAEQVDMIVVTDGSRILGLGDLGVHGIGIAVGKLDLYVAAAGINPQRVLPVMIDVGTNNEKLRNDPMYLGLQQRRLEDDDYIDVIDEFMEAVYTRWPHVIVQFEDFQSKWAFKLLQRYRCTYRMFNDDVQGTAGVAIAGLLGAVRAQGRPMIDFPKMKIVVAGAGSAGIGVLNAARKTMARMLGNTETAFDSAQSQFWVVDAQGLITEGRENIDPEAQPFARKTKEMERQGLKEGATLVEVVREVKPDVLLGLSAVGGLFSKEVLEAMKGSTSTRPAIFAMSNPTKNAECTPQDAFSILGENMIFASGSPFKNVEFGNGHVGHCNQGNNMYLFPGIGLGTLLSGAPIVSDGMLQAASECLAAYMSEEEVLEGIIYPPISRIRDITKRIAAAVIKEAIEEDLVEGYREMDAREIQKLDEEGLMEYVENNMWNPEYPTLVYKDD
chain 2: CIVHKRGADILHDPWFNKDTGFPLTERDRLGIRGLLPPRVMTCVQQCDRFIESFRSLENNTKGEPENVVALAKWRMLNRLHDRNETLYYRVLIDNIKDFAPIIYTPTVGLVCQNYSGLYRRPRGMYFSAKDKGEMMSMIYNWPAPQVDMIVITDGSRILGLGDLGVQGIGIPIGKLDMYVAAAGINPQRVLPIMLDVGTNNEKLLQNDLYLGVRQPRLEGEEYLEIIDEFMEAAFTRWPKAVVQFEDFQAKWAFGTLERYRKKFCMFNDDVQGTAGVALAGLLGTVRAQGRPISDFVNQKIVVVGAGSAGLGVTKMAVQAVARMAGISESEATKNFYLIDKDGLVTTERTKLDPGAVLFAKNPAEIREGASIVEVVKKVRPHVLLGLSGVGGIFNEEVLKAMRESDSCKPAIFAMSNPTLNAECTAADAFKHAGGNIVFASGSPFENVELENGKVGHVNQANNMYLFPGIGLGTLLSGARIVTDGMLQAASECLASYMTDEEVQKGILYPSINNIRHITAEVGAAVLRAAVTDDIAEGHGDVGPKDLSHMSKEDTVNYITRNMWFPVYSPLVHEK
Km (purified protein): 3.2 ± 0.4 mM | kcat (purified protein): 30.7 ± 2.0 s⁻¹

— doi:10.1101/2021.06.16.448762v1 (biorxiv, 2021)
